Entries after “also recorded” stand apart in the source; their conditions may differ. Like-named read-outs stand apart in the source and are kept apart here.
Key:
Nthy-ori-3-1 cells = test: Immunoblot of apoptosis markers and Ki-67 in normal thyroid cells; format: cell-based, human
Protocol: Briefly, proteins were isolated from whole cells in lysis buffer (20 mM Tris-HCl (pH 8), 137 mM NaCl, 10% glycerol, 1% Triton X-100, and 2 mM EDTA), quantified via Pierce™ BCA Protein Assay Kit (Thermo Fisher Scientific), and 25 μg protein/sample were resolved by polyacrylamide gel electrophoresis and immobilized onto nitrocellulose membranes. Membranes were blocked with 5% w/v BSA in TBS and 0.1% v/v Tween20 (Gold Bio, St Louis, MO, USA) for one hour at room temperature and incubated with primary antibodies overnight. Membranes were washed with TBS-0.1% Tween20 and secondary antibodies were applied for 1 hour at room temperature in 5% w/v BSA in TBS and 0.1% v/v Tween20. Immunoreactive proteins were detected by enhanced chemiluminescence (Thermo Scientific) on a ChemiDoc XRS+ (Bio-Rad Laboratories). Densitometry analysis was performed using ImageJ.

PYG isoforms = conditions: cited from earlier work
8505C cells [1] = test: Glycogen content (colorimetric assay, TEM) in ATC cells; format: cell-based, human; conditions: ATC cells (8505C), CP-91,149 50 μM, 24-hour incubation, colorimetry and TEM
Protocol: Transmission Electron Microscopy of Glycogen Deposits—Cells were seeded in 10 cm dishes and allowed to adhere overnight. […] Cells were then rinsed with PBS and lifted with trypsin for preparation for TEM as described previously. Thwe et al., “Cell-intrinsic Glycogen Metabolism Supports Early Glycolytic Reprogramming Required for Dendritic Cell Immune Responses,” Cell Metabolism 26:558-567.e555 (2017), which is hereby incorporated by reference in its entirety.
PYGB RNA Interference—For validating successful PYGB knockdown, 4.0×10^4 cells were plated in 12 well plates containing 0.2% Lipofectamine™ 3000 Transfection Reagent and the indicated concentration of siRNA targeting PYGB or control siRNA in 1 ml CTM. RNA was extracted 72 hours later for RT-qPCR analysis and protein was extracted 96 hours later for immunoblotting. For measuring the effect of PYGB knockdown on cell viability, 1.0×10^3 cells were seeded in 96 well plates with 0.15% Lipofectamine™ 3000 Transfection Reagent and the indicated concentration of siRNA targeting PYGB or control siRNA in 200 μl CTM for 7 days before conducting the SRB assay. For measuring the effect of PYGB knockdown on glycogen content, 6.5×10^5 cells were seeded in 10 cm dishes with 0.2% Lipofectamine™ 3000 Transfection Reagent and the indicated concentration of siRNA targeting PYGB or control siRNA in 10 ml CTM for 4 days preceding cell lysis for glycogen determination.
Quantification of Levels of Glycogen, Glucose-1-Phosphate, Glucose-6-Phosphate, Lactate, ATP, Glucose, NADPH, and Glutathione—Briefly, cells were seeded in 10 cm dishes (for measuring glycogen and NADPH), 6 well plates (GIP, G6P, lactate, glucose, and glutathione), or 96 well plates (ATP) and allowed to adhere overnight. CTM was aspirated and cells were rinsed with PBS before application of compounds dissolved in CTM for 24 hours, at which point cells were ~90% confluent. CTM was then aspirated, cells were rinsed with PBS, and lysed according to the respective manufacturer protocol (see Table 4) for metabolite analysis.

8505C tumors = test: Staining of excised xenograft tumors (Ki-67, cleaved PARP, PAS glycogen); format: in vivo, mouse
HepG2 cells = conditions: hepatocellular carcinoma; cited from earlier work
8505C cells [2] = test: Reactive oxygen species quantification (H2DCFDA); format: cell-based, human; conditions: for reactive oxygen species (ROS) levels: 8505C ATC cells
Protocol: Quantification of Reactive Oxygen Species—Thyroid cells (1.0-2.0×10^4) were seeded in a black 96 well plate in 200 μl CTM and allowed to adhere overnight. Wells were washed with PBS and incubated with or without 25 μM H2DCFDA for 45 minutes at 37° C. in a non-CO2 incubator with compounds of interest diluted in phenol-red free RPMI (supplemented with 2 mM glutamine and 10% charcoal-stripped serum). Wells were washed with PBS and received compounds of interest diluted in phenol-red free, supplemented RPMI and incubated at 37° C. in a SpectraMax M4 Microplate Reader (Molecular Devices) to record fluorescent measurements (Ex/Em=485/535 nm) every 15 minutes overnight. Maximum fluorescence intensity was determined (~6 hours), background signal (—H2DCFDA) was subtracted from each group, and corrected values were normalized to the vehicle control.

8505C cells [3] = test: SRB cell viability assay in ATC cells; format: cell-based, human
Protocol: In Vitro Cell Staining for Measuring Drug Efficacy—Thyroid cells (4.0×10^3) were seeded in 96 well plates with 100 μl CTM and allowed to adhere overnight. 100 μl of CTM containing 2× concentration of compound was overlayed in each well for 48 hours unless otherwise indicated. Each well then received 100 μl of 10% w/v cold trichloroacetic acid (Fisher) and incubated at 4° C. for 1 hour to fix the cells. Each well was rinsed 3× with DI H2O and stained with 100 μl 0.057% w/v sulforhodamine B (SRB, Sigma-Aldrich) for 30 minutes at room temperature in the dark. Wells were washed 4× with 300 μl 1% v/v acetic acid (Fisher), and remaining SRB stain was solubilized with 200 μl of 10 mM Tris buffer, pH 10.5 (Fisher). Absorbance was measured at 564 nm with a Synergy 2 Multi-Detection Microplate Reader (Agilent Technologies) and normalized to a vehicle control. Drug synergy was evaluated using the coefficient of drug interaction (CDI) formula: CDI=AB/(A×B)×100, where AB is the percent remaining cells of an indicated combination treatment, A is the average percent remaining cells of agent 1 alone, and B is the average percent remaining cells of agent 2 alone. […] Hao et al., “Effect of Lumiracoxib on Proliferation and Apoptosis of Human Nonsmall Cell Lung Cancer Cells In vitro,” Chin Med J (Engl) 121:602-607 (2008), which is hereby incorporated by reference in its entirety. […]

8505C cells [4] = test: Cell attachment to fibronectin-coated plates; format: cell-based, human; conditions: 24 hours of 50 μM CP treatment
From the text: Cells were washed with PBS and lifted with trypsin.

[5] = immunofluorescence of excised tumors

CN(C)C(=O)[C@H](O)[C@H](Cc1ccccc1)NC(=O)c1cc2cc(Cl)ccc2[nH]1 [CP-91,149, 5-chloro-N-[(2S,3R)-4-(dimethylamino)-3-hydroxy-4-oxo-1-phenylbutan-2-yl]-1H-indole-2-carboxamide]
apoptosis (PARP and caspase cleavage) (Nthy-ori-3-1 cells): but not normal thyroid cells
apoptosis (PARP and caspase cleavage) (Nthy-ori-3-1 cells; listed as CP): did not significantly induce apoptosis
proliferation (Ki-67 levels) (Nthy-ori-3-1 cells; listed as CP): not affected
inhibition of PYG isoforms (PYG isoforms): inhibits all PYG isoforms
glycogen content (8505C cells [1]): increased glycogen content; also recorded: causes a buildup of glycogen
glycogen content (8505C cells [1]; listed as CP): significantly increased glycogen content
glycogen in tumor tissue (PAS staining) (8505C tumors; excised tumors): significantly increased the level of glycogen in the tumor tissue
Ki-67 expression in xenograft tumors (8505C tumors; [5]): reduction in Ki-67 expression
apoptosis (PARP cleavage) in xenograft tumors (8505C tumors; [5]): induces apoptosis in vivo
apoptosis (PARP cleavage) in xenograft tumors (8505C tumors; immunofluorescence of excised tumors, listed as CP): profoundly induced apoptosis
ROS levels (HepG2 cells): increased ROS levels
autophagic adaptations (HepG2 cells): triggered autophagic adaptations
intrinsic apoptosis (HepG2 cells): induce intrinsic apoptosis
reactive oxygen species (ROS) levels (8505C cells [2]): induced reactive oxygen species accumulation; also recorded: enhances the relative levels of reactive oxygen species
reactive oxygen species (ROS) levels (8505C cells [2]; listed as CP): three-fold increase; also recorded: higher in cells treated with CP compared to 2-DG
ROS levels with excess glucose (8505C cells [2]; 8505C cells): excess glucose reduced ROS levels only in CP-treated cells
cell viability with excess (2 mM) pyruvate (8505C cells [3]; 8505C cells, 48 hours): nearly identical to the pyruvate-depleted group
cell viability with excess (25 mM) glucose (8505C cells [3]; 8505C cells, 48 hours): rescued cell viability
cell viability with pyruvate depletion (8505C cells [3]; 8505C cells, 48 hours): able to compensate for loss of pyruvate
total cell viability (8505C cells [3]; ATC cells, 48 hours at 50 μM): modestly but significantly reduced total cell viability
cell viability, concentration and time dependence (SRB assay) (8505C cells [3]; various concentrations and time points): concentration-dependent decrease in cell viability; also recorded: decreases 8505C cell viability in a time-dependent manner
cell attachment to fibronectin-coated plates (8505C cells [4]): inhibits cell attachment
cell attachment to fibronectin-coated plates (8505C cells [4]; listed as CP): inhibited the ability of 8505C cells to attach to fibronectin-coated plates
